Reference: patent publication US10030058B2, “Modulating gamma-C-cytokine activity” (Bioniz, LLC, priority 2015, dated 2018)
Peptide text beside a SMILES is read from it.

System: T-cells in HAM/TSP patient PBMC culture
Assay: Ex vivo spontaneous T-cell proliferation assay using HAM/TSP peripheral blood
Format: cell-based, human
Settings: FIG. 4D
Method: Proliferation assays were performed on HAM/TSP patient blood samples with and without the addition of BNZ-γ. These assays evaluated the ability of BNZ-γ to block the function of cytokines, such as IL-2 and IL-15, present in the ex vivo HAM/TSP patient blood culture and prevent spontaneous T-cell proliferation in these samples.
In an ex vivo spontaneous T-cell proliferation assay, PBMC from HAM/TSP patient was cultured at 1×10(6) cells per well of a 96 well plate in RPMI-10% FCS. Increasing concentrations of BNZ-γ peptide were added to each well. As a control, an irrelevant peptide was used in similar fashion. The cells were incubated in a 37° C. CO2 incubator for 3, 4, and 6 days. The amount of 1 uCi of ^3H-thymidine was added to the cells. After an additional 6 hour incubation, cells were harvested their proliferation rate was measured. As indicated in FIG. 4A-FIG. 4D, BNZ-γ peptide inhibits the spontaneous proliferation of T-cells in HAM/TSP culture at a concentration of about 1 ug/ml.
Other immunological markers were additionally measured in this assay. The percentage of the viral specific CD8 cells was measured during the ex vivo culture using viral protein tetramers. The population of CD4+CD25+ cells, a marker of T-cell activation, as well as Ki67 staining, a marker of T-cell proliferation, was monitored in a flow cytometry assay.

Question: Which “percent of live cells by Guava staining” value does the source give for `CC[C@H](C)[C@H](N)C(=O)N[C@@H](CCCCN)C(=O)N[C@@H](CCC(=O)O)C(=O)N[C@@H](Cc1ccccc1)C(=O)N[C@@H](CC(C)C)C(=O)N[C@@H](CCC(N)=O)C(=O)N[C@@H](CCCNC(=N)N)C(=O)N[C@@H](Cc1ccccc1)C(=O)N[C@H](C(=O)N[C@@H](Cc1c[nH]cn1)C(=O)N[C@H](C(=O)N[C@H](C(=O)N[C@@H](CCC(N)=O)C(=O)N[C@@H](CO)C(=O)N[C@H](C(=O)N[C@H](C(=O)N[C@@H](CC(N)=O)C(=O)N[C@H](C(=O)N[C@@H](CO)C(=O)O)[C@@H](C)O)[C@@H](C)CC)[C@@H](C)CC)C(C)C)[C@@H](C)CC)[C@@H](C)CC` [BNZ-γ, I-K-E-F-L-Q-R-F-I-H-I-V-Q-S-I-I-N-T-S] (H-IKEFLQRFIHIVQSIINTS-OH) here?
Answer: The value was “not impacted”.
